Columns and labels:
[1] = test system: PLD; experiment: PLD activity assay in HCT 116 cells; format: cell-based; settings: at 10 μM (Fig. 1c)
Description: (§1) Cells were labeled with [H^3] myristic acid, and PLD activity was assessed by measuring the formation of [H^3] phosphatidylbutanol, which is the product of PLD-mediated transphosphatidylation, in the presence of 1-butanol, as previously described.

[2] = test system: FHC cells; experiment: Cell cycle analysis (BrdU/7-AAD flow cytometry), FHC; format: cell-based; settings: FHC normal fetal colonic mucosa cells
Description: (§2) For cell cycle analysis, the cells were treated with Α3373 or 5-FU. The cells were labeled with 10 μΜ bromodeoxyuridine (BrdU) for 2 h. Subsequently, the cells were stained with 7-aminoactinomycin D (7-AAD, Invitrogen) and a fluorescein isothiocyanate (FITC)-conjugated anti-BrdU antibody (Invitrogen). Apoptotic cells were detected using an Annexin V-FITC Apoptosis Detection Kit (BD Biosciences). The cells were analyzed using BD FACSAria III (BD Biosciences), and data analysis was performed using FlowJo v10.0 (BD Biosciences).

[3] = test system: DLD1 cells; experiment: Apoptosis assay (annexin V flow cytometry), DLD1; format: cell-based
Description: as §2

[4] = test system: DLD1 cells; experiment: Cell cycle analysis (BrdU/7-AAD flow cytometry), DLD1; format: cell-based
Description: as §2

[5] = test system: FHC cells; experiment: Apoptosis assay (annexin V flow cytometry), FHC; format: cell-based
Description: as §2

[6] = test system: PLD; experiment: PLD activity assay in DLD1 cells; format: cell-based; settings: compared to unsubstituted congener
Description: as §1

[7] = biological target: T1, PLD1 (Homo sapiens, UniProt Q13393); experiment: Streptavidin pull-down assay, PLD1; format: binding; settings: 10 μM, various CRC cell lysates
T1 construct: endogenous in cells
T1 sequence (Q13393 1-1074): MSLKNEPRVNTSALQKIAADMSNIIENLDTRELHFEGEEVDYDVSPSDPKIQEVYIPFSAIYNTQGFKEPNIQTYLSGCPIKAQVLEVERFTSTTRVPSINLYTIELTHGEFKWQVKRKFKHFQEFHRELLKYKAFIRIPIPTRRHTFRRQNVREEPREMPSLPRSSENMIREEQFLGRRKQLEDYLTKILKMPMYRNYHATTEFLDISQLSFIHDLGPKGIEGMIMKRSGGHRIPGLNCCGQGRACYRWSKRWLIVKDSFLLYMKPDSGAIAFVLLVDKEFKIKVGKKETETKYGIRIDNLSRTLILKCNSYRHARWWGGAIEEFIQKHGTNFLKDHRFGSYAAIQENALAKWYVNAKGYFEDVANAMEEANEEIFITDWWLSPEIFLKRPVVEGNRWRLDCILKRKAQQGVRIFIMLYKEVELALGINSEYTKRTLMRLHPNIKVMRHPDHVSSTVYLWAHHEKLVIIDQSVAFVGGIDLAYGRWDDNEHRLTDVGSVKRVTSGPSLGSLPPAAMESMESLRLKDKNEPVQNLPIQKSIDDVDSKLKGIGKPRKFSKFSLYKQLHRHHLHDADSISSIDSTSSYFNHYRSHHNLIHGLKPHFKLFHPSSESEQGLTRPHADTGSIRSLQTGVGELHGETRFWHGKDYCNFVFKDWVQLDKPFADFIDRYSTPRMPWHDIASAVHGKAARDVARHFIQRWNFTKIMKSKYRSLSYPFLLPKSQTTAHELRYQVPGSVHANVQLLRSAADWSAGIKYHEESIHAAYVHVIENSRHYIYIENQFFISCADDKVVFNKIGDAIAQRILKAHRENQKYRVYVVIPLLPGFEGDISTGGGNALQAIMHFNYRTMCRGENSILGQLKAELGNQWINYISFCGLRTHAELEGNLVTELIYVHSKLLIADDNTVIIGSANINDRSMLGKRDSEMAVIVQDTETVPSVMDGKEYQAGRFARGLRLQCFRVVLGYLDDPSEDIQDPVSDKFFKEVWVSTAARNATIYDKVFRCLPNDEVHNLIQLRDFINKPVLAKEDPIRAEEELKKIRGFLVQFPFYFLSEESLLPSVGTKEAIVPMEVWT
Description: Cells were lysed in passive lysis buffer (Promega). Cell lysates were incubated with biotinylated chemicals (A4333, 10 μM) or biotin (10 μM) at 37 °C for 1 h and treated with streptavidin beads (Thermo Scientific) at 20 °C for 1 h. After removing free biotinylated chemicals by washing with PBS, the samples were subjected to SDS‒PAGE followed by immunoblotting with an antibody against PLD[20].

SMILES: C[C@@H](CN1CCC(n2c(=O)[nH]c3cc(Cl)ccc32)CC1)NC(=O)c1ccc2ccccc2c1 [VU0155069, reference compound]
- PLD activity remained [1]: 30.4%

SMILES: O=c1[nH]cc(F)c(=O)[nH]1 [Compound 5-FU, 5-fluorouracil, reference compound]
- cell cycle / S phase in FHC cells, in words [2]: decreased the S phase population
- apoptosis of CRC cells, in words [3]: increased the apoptosis of both CRC and FHC cells
- cell cycle / proliferation of CRC cells, in words [4]: decreased the S phase population
- apoptosis of FHC cells, in words [5]: increased the apoptosis of both CRC and FHC cells

SMILES: O=C(CCCC[C@@H]1SC[C@@H]2NC(=O)N[C@@H]21)NNC(=O)c1ccc2[nH]c(C(=O)Nc3cc(C(F)(F)F)cc(C(F)(F)F)c3)cc2c1 [Compound A4333]
- PLD inhibition, in words [6]: still potent for PLD inhibition
- interaction with PLD1 (pull-down) [7]: interacted with PLD1
